From patent publication US20150105252A1, “SUBSTITUTED PYRAZOLES AS HERBICIDES” (E I DU PONT DE NEMOURS AND COMPANY, priority 2013, published 2015)

Tests used:
[1] = tested on: wheat; experiment: Test A preemergence; assay type: in vivo, Triticum aestivum; conditions: preemergence
Procedure, shortened: (§1)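 Seeds were sown in a loam soil–sand blend and given a directed soil spray preemergence; postemergence plants at 2–10 cm, one- to two-leaf stage, were sprayed with compound in non-phytotoxic solvent with surfactant. After about 10 days in a greenhouse, injury was visually rated against untreated controls (0 = no effect, 100 = complete control).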

[2] = tested on: oilseed rape; experiment: Test C postemergence; assay type: in vivo, Brassica napus; conditions: for Oilseed Rape plant response rating / Plant response rating, Oilseed Rape: postemergence; for Oilseed Rape plant response rating: 62 g ai/ha, scale 0 to 100
From the text: (§2) Seeds of plant species selected from blackgrass (Alopecurus myosuroides), ryegrass, Italian (Italian ryegrass, Lolium multiflorum), wheat (winter wheat, Triticum aestivum), galium (catchweed bedstraw, Galium aparine), corn (Zea mays), crabgrass, large (large crabgrass, Digitaria sanguinalis), foxtail, giant (giant foxtail, Setaria faberii), johnsongrass (Sorghum halepense), lambsquarters (Chenopodium album), morningglory (Ipomoea coccinea), nutsedge, yellow (yellow nutsedge, Cyperus esculentus), pigweed (redroot pigweed, Amaranthus retroflexus), ragweed (common ragweed, Ambrosia elation), soybean (Glycine max), barnyardgrass (Echinochloa crus-galli), oilseed rape (Brassica napus), waterhemp (common waterhemp, Amaranthus rudis), oat, wild (wild oat, Avena fatua), kochia (Kochia scoparia), Surinam grass (Brachiaria decumbens), foxtail, green (green foxtail, Setaria viridis), goosegrass (Eleusine indica), bromegrass, downy (downy bromegrass, Bromus tectorum), nightshade (eastern black nightshade, Solanum ptycanthum), cocklebur (common cocklebur, Xanthium strumarium), cupgrass, woolly (woolly cupgrass, Eriochloa villosa), bermudagrass (Cynodon dactylon), sunflower, (common oilseed sunflower, Helianthus annuus), Russian thistle (Salsola kali), and velvetleaf (Abutilon theophrasti) were planted into a blend of loam soil and sand and treated preemergence with test chemicals formulated in a non-phytotoxic solvent mixture which included a surfactant.
(§3) At the same time, plants selected from these crop and weed species and also chickweed (common chickweed, Stellaria media), canarygrass (littleseed canarygrass, Phalaris minor), and deadnettle (henbit deadnettle, Lamium amplexicaule), were planted in pots containing Redi-Earth® planting medium (Scotts Company, 14111 Scottslawn Road, Marysville, Ohio 43041) comprising spaghnum peat moss, vermiculite, wetting agent and starter nutrients and treated with postemergence applications of test chemicals formulated in the same manner. Plants ranged in height from 2 to 18 cm (1- to 4-leaf stage) for postemergence treatments. Treated plants and controls were maintained in a greenhouse for 13 to 15 days, after which time all species were compared to controls and visually evaluated. Plant response ratings, summarized in Table C, are based on a scale of 0 to 100 where 0 is no effect and 100 is complete control. A dash (-) response means no test result.

[3] = tested on: nutsedge, yellow; experiment: Test C postemergence; assay type: in vivo, Cyperus esculentus; conditions: for Plant response rating (scale of 0 to 100 where 0 is no effect and 100 is complete control), Nutsedge, Yellow: Postemergence, 31 g ai/ha, visually evaluated after 13 to 15 days; for Nutsedge, Yellow plant response rating / Plant response rating, Nutsedge, Yellow: postemergence; for Nutsedge, Yellow plant response rating: 62 g ai/ha, scale 0 to 100
From the text: as §2, §3

[4] = tested on: morningglory; experiment: Test A postemergence; assay type: in vivo, Ipomoea spp.
Procedure, shortened: as §1

[5] = tested on: johnsongrass; experiment: Test C postemergence; assay type: in vivo, Sorghum halepense; conditions: for Plant response rating (scale of 0 to 100 where 0 is no effect and 100 is complete control), Johnsongrass: Postemergence, 31 g ai/ha, visually evaluated after 13 to 15 days; for Johnsongrass plant response rating / Plant response rating, Johnsongrass: postemergence; for Johnsongrass plant response rating: 62 g ai/ha, scale 0 to 100
From the text: as §2, §3

[6] = tested on: corn; experiment: Test C postemergence; assay type: in vivo, Zea mays; conditions: for Plant response rating (scale of 0 to 100 where 0 is no effect and 100 is complete control), Corn: Postemergence, 31 g ai/ha, visually evaluated after 13 to 15 days; for Corn plant response rating / Plant response rating, Corn: postemergence; for Corn plant response rating: 62 g ai/ha, scale 0 to 100
From the text: as §2, §3

[7] = tested on: foxtail, giant; experiment: Test C postemergence; assay type: in vivo, Setaria faberii; conditions: for Plant response rating (scale of 0 to 100 where 0 is no effect and 100 is complete control), Foxtail, Giant: Postemergence, 31 g ai/ha, visually evaluated after 13 to 15 days; for Foxtail, Giant plant response rating / Plant response rating, Foxtail, Giant: postemergence; for Foxtail, Giant plant response rating: 62 g ai/ha, scale 0 to 100
From the text: as §2, §3

[8] = tested on: crabgrass, large; experiment: Test A preemergence; assay type: in vivo, Digitaria sanguinalis; conditions: preemergence
Procedure, shortened: as §1

[9] = tested on: soybean; experiment: Test C postemergence; assay type: in vivo, Glycine max; conditions: for Soybean plant response rating / Plant response rating, Soybean: postemergence; for Plant response rating, Soybean: 250 g ai/ha, scale 0 to 100 (0 no effect, 100 complete control)
From the text: as §2, §3

[10] = tested on: ragweed; experiment: Test C postemergence; assay type: in vivo, Ambrosia elation
From the text: as §2, §3

[11] = tested on: ryegrass, Italian; experiment: Test C postemergence; assay type: in vivo, Lolium multiflorum
From the text: as §2, §3

[12] = tested on: velvetleaf; experiment: Test C preemergence; assay type: in vivo, Abutilon theophrasti
Procedure, shortened: (§4)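 Seeds were sown in a loam soil–sand blend and sprayed preemergence with compounds formulated in a non-phytotoxic solvent mixture containing surfactant. Postemergence plants, grown in peat/vermiculite medium to 2–18 cm (1- to 4-leaf stage), received the same formulation. After 13 to 15 days in a greenhouse, injury was rated visually against controls (0 = no effect, 100 = complete control).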

[13] = tested on: barnyardgrass; experiment: Test C preemergence; assay type: in vivo, Echinochloa crus-galli; conditions: preemergence
Procedure, shortened: as §4

[14] = tested on: soybean; experiment: Test C preemergence; assay type: in vivo, Glycine max
Procedure, shortened: as §4

[15] = tested on: ragweed; experiment: Test C preemergence; assay type: in vivo, Ambrosia elation
Procedure, shortened: as §4

[16] = tested on: waterhemp; experiment: Test C preemergence; assay type: in vivo, Amaranthus rudis
From the text: as §2, §3

[17] = 125 g ai/ha, visual injury, 0 to 100 scale, approx. 10 days
[18] = 500 g ai/ha, visual injury after approx. 10 days, 0 to 100 scale (0 no effect, 100 complete control)
[19] = Postemergence, 31 g ai/ha, visually evaluated after 13 to 15 days
[20] = 250 g ai/ha, scale 0 to 100 (0 no effect, 100 complete control)
[21] = 125 g ai/ha, scale 0 to 100, 0 no effect, 100 complete control
[22] = Postemergence, 500 g ai/ha, 0 to 100 scale (0 no effect, 100 complete control)
[23] = postemergence, 62 g ai/ha, scale 0 to 100
[24] = postemergence, 250 g ai/ha, scale 0 to 100 (0 no effect, 100 complete control)
[25] = postemergence, 125 g ai/ha, scale 0 to 100, 0 no effect, 100 complete control
[26] = Preemergence, rate head not shown (block before 16 g ai/ha), scale 0 to 100
[27] = preemergence, 62 g ai/ha, scale 0 to 100 (0 no effect, 100 complete control), 13 to 15 days
[28] = preemergence, 125 g ai/ha, 13 to 15 days, scale 0 to 100, 0 = no effect, 100 = complete control
[29] = preemergence, 250 g ai/ha, scale 0 to 100, 0 is no effect, 100 is complete control
[30] = 125 g ai/ha, visual injury approx. 10 days after treatment

CCCc1cc(C(=O)NCC(F)(F)F)nn1Cc1cc(C(F)(F)F)nn1C [Compound 138]
Wheat plant response rating [1, 17]: 80
Wheat plant response rating [1, 18]: 90
Plant response rating (scale of 0 to 100 where 0 is no effect and 100 is complete control), Oilseed Rape [2, 19]: 55
Oilseed Rape plant response rating [2]: 60
Plant response rating, Oilseed Rape [2, 20]: 60
Plant response rating, Oilseed Rape [2, 21]: 80
Plant response rating (scale of 0 to 100 where 0 is no effect and 100 is complete control), Nutsedge, Yellow [3]: 0
Nutsedge, Yellow plant response rating [3]: 0
Plant response rating, Nutsedge, Yellow [3, 20]: 5
Plant response rating, Nutsedge, Yellow [3, 21]: 5
Morningglory plant response rating [4, 22]: 100
Morningglory plant response rating ([4]; postemergence, 125 g ai/ha, about 10 days, visual rating on 0 to 100 scale (0 no effect, 100 complete control)): 80
Plant response rating (scale of 0 to 100 where 0 is no effect and 100 is complete control), Johnsongrass [5]: 10
Johnsongrass plant response rating [5]: 10
Plant response rating, Johnsongrass [5, 20]: 20
Plant response rating, Johnsongrass [5, 21]: 10
Plant response rating (scale of 0 to 100 where 0 is no effect and 100 is complete control), Corn [6]: 15
Corn plant response rating [6]: 15
Plant response rating, Corn [6, 20]: 30
Plant response rating, Corn [6, 21]: 15
Plant response rating (scale of 0 to 100 where 0 is no effect and 100 is complete control), Foxtail, Giant [7]: 5
Foxtail, Giant plant response rating [7]: 5
Plant response rating, Foxtail, Giant [7, 20]: 50
Plant response rating, Foxtail, Giant [7, 21]: 10
Crabgrass, Large plant response rating [8, 17]: 100
Crabgrass, Large plant response rating [8, 18]: 100
Plant response rating (scale of 0 to 100 where 0 is no effect and 100 is complete control), Soybean [9, 19]: 65
Soybean plant response rating ([9]; 62 g ai/ha, scale 0 to 100): 75
Plant response rating, Soybean [9]: 65
Soybean plant response rating [9, 21]: 90
Plant response rating (scale of 0 to 100 where 0 is no effect and 100 is complete control), Ragweed [10, 19]: 10
Ragweed plant response rating [10, 23]: 30
Plant response rating, Ragweed [10, 24]: 60
Plant response rating, Ragweed [10, 25]: 50
Plant response rating (scale of 0 to 100 where 0 is no effect and 100 is complete control), Ryegrass, Italian [11, 19]: 5
Ryegrass, Italian plant response rating [11, 23]: 15
Plant response rating, Ryegrass, Italian [11, 24]: 10
Plant response rating, Ryegrass, Italian [11, 25]: 5

CCc1cc(C(=O)NCC(F)(F)F)nn1Cc1cc(OC(F)F)nn1C [Compound 206]
Oilseed Rape plant response rating [2]: 5
Plant response rating, Oilseed Rape [2, 20]: 50
Plant response rating, Oilseed Rape [2, 21]: 5
Plant response rating (scale of 0 to 100 where 0 is no effect and 100 is complete control), Nutsedge, Yellow [3]: 0
Nutsedge, Yellow plant response rating [3]: 0
Plant response rating, Nutsedge, Yellow [3, 20]: 0
Plant response rating, Nutsedge, Yellow [3, 21]: 0
Plant response rating (scale of 0 to 100 where 0 is no effect and 100 is complete control), Johnsongrass [5]: 0
Johnsongrass plant response rating [5]: 0
Plant response rating, Johnsongrass [5, 20]: 5
Plant response rating, Johnsongrass [5, 21]: 5
Plant response rating (scale of 0 to 100 where 0 is no effect and 100 is complete control), Corn [6]: 5
Corn plant response rating [6]: 5
Plant response rating, Corn [6, 20]: 5
Plant response rating, Corn [6, 21]: 5
Plant response rating (scale of 0 to 100 where 0 is no effect and 100 is complete control), Foxtail, Giant [7]: 15
Foxtail, Giant plant response rating [7]: 5
Plant response rating, Foxtail, Giant [7, 20]: 5
Plant response rating, Foxtail, Giant [7, 21]: 5
Plant response rating, Soybean [9]: 35
Soybean plant response rating [9, 21]: 45
Plant response rating, Ragweed [10, 24]: 20
Plant response rating, Ragweed [10, 25]: 35
Plant response rating, Ryegrass, Italian [11, 24]: 0
Plant response rating, Ryegrass, Italian [11, 25]: 0

CCc1cc(C(=O)NC2CC2)nn1Cc1cc(C(F)(F)C(F)(F)F)nn1C [Compound 226]
Plant response rating, Velvetleaf [12, 26]: 25
Velvetleaf plant response rating [12, 27]: 80
Plant response rating, Velvetleaf [12, 28]: 100
Velvetleaf plant response rating [12, 29]: 100
Barnyardgrass plant response rating ([13]; 31 g ai/ha, visual rating, scale 0 to 100 (0 no effect, 100 complete control), 13 to 15 days): 10
Barnyardgrass plant response rating ([13]; 62 g ai/ha, scale 0 to 100 (0 no effect, 100 complete control), 13 to 15 days): 65
Plant response rating, Barnyardgrass ([13]; 125 g ai/ha, 13 to 15 days, scale 0 to 100, 0 = no effect, 100 = complete control): 95
Barnyardgrass plant response rating ([13]; 250 g ai/ha, scale 0 to 100, 0 is no effect, 100 is complete control): 100
Wheat plant response rating (0 to 100 scale) [1, 30]: 40
Plant response rating, Soybean [14, 26]: 10
Soybean plant response rating [14, 27]: 70
Plant response rating, Soybean [14, 28]: 95
Soybean plant response rating [14, 29]: 100
Morningglory plant response rating ([4]; Postemergence, 125 g ai/ha, 0 to 100 scale, 0 no effect, 100 complete control): 70
Morningglory plant response rating [4, 22]: 100
Plant response rating, Ragweed [15, 26]: 90
Ragweed plant response rating [15, 27]: 100
Plant response rating, Ragweed [15, 28]: 95
Ragweed plant response rating [15, 29]: 98
Crabgrass, Large plant response rating (0 to 100 scale) [8, 30]: 100
Crabgrass, Large plant response rating [8, 18]: 100
Plant response rating, Waterhemp [16, 26]: 100
Waterhemp plant response rating [16, 27]: 100
Plant response rating, Waterhemp [16, 28]: 100
Waterhemp plant response rating [16, 29]: 100
